Patent US5334703A, “Chromogenic substrate” (Chromonogenix AB, priority 1989, dated 1994)
Where a name gives a salt, the structure may show the parent alone. Peptide text beside a SMILES is read from it. * marks the point of attachment. pNA = O=[N+]([O-])c1ccc(N*)cc1

system: activated LAL (Limulus Amebocyte Lysate); assay: Single-stage chromogenic LAL-test (hydrolysis of the chromogenic substrate by endotoxin-activated LAL, pNA read at 405 nm); format: biochemical, Limulus Potyphemus; details: substrate concentration 2.2 mM in the reaction solution; endotoxin 0.1-1.2 EU/ml; Tris buffer pH 7.9; 37° C., 15 min; absorbance 405 nm
Experimental: A series of endotoxin containing solutions, making up a standard curve in the range 0.1-1.2 EU/ml, were assayed as described below using the different chromogenic substrates. The slopes of the resulting standard curves were compared and the slope for the substrate S-2423 was considered to be 100%.
A reagent (100 μl) consisting of a mixture of LAL (50% of the clotting concentration) and the chromogenic substrate (4.4 mM) in a Tris buffer of pH 7.9 is added to an equal volume of the sample. The resulting reaction (activation of the LAL and the subsequent hydrolyses of the chromogenic substrate)is carried out at 37° C. After 15 min. the reaction is terminated by the addition of 400 μl of acetic acid and the absorbance is read at 405 nm.
Substrate S-2423 (Ac-Ile-Glu-Gly-Arg-pNA.HCl) is taken as standard.

Question: With `CC[C@H](C)[C@H](NC(C)=O)C(=O)N[C@@H](CCC(=O)O)C(=O)NCC(=O)N[C@@H](CCCNC(=N)N)C(=O)Nc1ccc([N+](=O)[O-])cc1` [Substrate S-2423, Ac--Ile--Glu--Gly--Arg--pNA.HCl, reference compound] (Ac-IEGR-pNA) as the molecule, how does the “Relative activity (slope of endotoxin standard curve, S-2423 = 100%)” value read?
Answer: The value was 100%.

Question: For `CC[C@H](C)[C@H](NC(C)=O)C(=O)N[C@@H](CCC(=O)O)C(=O)OCC(=O)N[C@@H](CCCNC(=N)N)C(=O)Nc1ccc([N+](=O)[O-])cc1` [Substrate S-2860, Ac--Ile--Glu-Glycolyl-Arg--pNA.HCl], which “Relative activity (slope of endotoxin standard curve, S-2423 = 100%)” value is on record?
Answer: The value was 142%.

Question: With `CC[C@H](C)[C@H](NC(C)=O)C(=O)N[C@@H](CO)C(=O)NCC(=O)N[C@@H](CCCCN)C(=O)Nc1ccc([N+](=O)[O-])cc1` [Substrate S-2854, Ac--Ile--Ser--Gly--Lys--pNA.HCl] (Ac-ISGK-pNA) as the molecule, how does the “Relative activity (slope of endotoxin standard curve, S-2423 = 100%)” value read?
Answer: Its value is 131%.

Question: Which “Relative activity (slope of endotoxin standard curve, S-2423 = 100%)” value does the source give for `CC[C@H](C)[C@H](NC(C)=O)C(=O)N[C@@H](CCC(=O)O)C(=O)NCC(=O)N[C@@H](CCCCN)C(=O)Nc1ccc([N+](=O)[O-])cc1` [Substrate S-2834, Ac--Ile--Glu--Gly--Lys--pNA.HCl] (Ac-IEGK-pNA) here?
Answer: The value was 126%.
